A word on the pIC50: it is −log10 of the IC50, conventionally taken in molar units.

From patent publication US9023865B2, “Compounds that are ERK inhibitors” (Merck Sharp & Dohme Corp., priority 2011, dated 2015) come the findings set out here.

pIC50: −log10 of the molar value. Structures can show the parent of a compound that is named as a salt. Where two headings read alike, the source gives them in different places.

Assay [1] addresses Active Mouse ERK2 (mERK2) (Mus musculus (Mouse), UniProt P63085). Description: Active Mouse ERK2 (mERK2) Activity Assay (IMAP-FP). In kind it is biochemical. The procedure:
Active Mouse ERK2 (mERK2) Activity Assay:
Activated ERK2 activity was determined in an IMAP-FP assay (Molecular Devices). […] Phosphorylation reactions were allowed to proceed for 45 minutes and were immediately quenched by the addition of 60 μL IMAP detection beads (1:1000 dilutions) in IMAP binding buffer (Molecular Devices) with 24 mM NaCl. Plates were read on EnVision reader after 60 minutes binding equilibration using Fluorescence Polarization protocol (Perkin Elmer).

For assay [2], the target named is Active Human ERK2 (hERK2) (Homo sapiens (Human), UniProt P28482). Description: Active Human ERK2 (hERK2) Activity Assay (IMAP-FP). In kind it is biochemical. The settings on record: read-out: ERK 2 Human average IC50. The gist of the method:
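Phosphorylation by activated human ERK2 (0.5 nM) at 30 μM ATP, peptide substrate 900 nM unlabeled with 80 nM labeled, proceeds 60 min. IMAP beads stop the reaction; after 60 min equilibration, product is measured by fluorescence polarization.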

[3] abbreviates: phosphorylated active mERK2, 30 uM ATP, read-out: ERK 2 MAPK1 Mouse IC50.
The mark [4] stands for this setting: read-out: AERK2 IC50 (Active mouse ERK2 Activity Assay).
[5] abbreviates: phosphorylated active hERK2, 30 μM ATP, average.

Chain of Active Mouse ERK2 (mERK2) (P63085 whole entry): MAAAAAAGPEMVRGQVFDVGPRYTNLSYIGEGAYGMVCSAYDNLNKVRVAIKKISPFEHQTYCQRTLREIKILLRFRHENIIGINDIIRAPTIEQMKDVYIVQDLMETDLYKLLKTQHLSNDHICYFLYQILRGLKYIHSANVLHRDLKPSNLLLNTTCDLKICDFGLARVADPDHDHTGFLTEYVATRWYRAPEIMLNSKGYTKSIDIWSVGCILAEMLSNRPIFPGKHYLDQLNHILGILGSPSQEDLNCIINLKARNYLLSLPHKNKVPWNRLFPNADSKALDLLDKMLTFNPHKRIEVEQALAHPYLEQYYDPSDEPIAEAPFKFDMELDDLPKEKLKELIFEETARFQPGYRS
Chain of Active Human ERK2 (hERK2) (P28482 whole entry): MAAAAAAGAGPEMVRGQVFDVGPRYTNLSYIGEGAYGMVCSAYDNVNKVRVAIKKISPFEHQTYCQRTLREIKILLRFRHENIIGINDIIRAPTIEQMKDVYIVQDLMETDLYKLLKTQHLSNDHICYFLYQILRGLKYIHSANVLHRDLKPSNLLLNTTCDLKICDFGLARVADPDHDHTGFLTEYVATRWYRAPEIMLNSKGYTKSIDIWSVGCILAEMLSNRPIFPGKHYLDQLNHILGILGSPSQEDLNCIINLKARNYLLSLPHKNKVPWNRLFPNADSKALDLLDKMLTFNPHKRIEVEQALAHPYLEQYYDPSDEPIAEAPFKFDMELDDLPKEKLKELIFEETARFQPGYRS

Consider `COc1cccc(F)c1CN1CCCC(NC(=O)Nc2cc3[nH]nc(-c4ccnc(C)c4)c3cn2)C1` (centres unmarked) [Example 4, 1-[1-(2-fluoro-6-methoxybenzyl)-piperidin-3-yl]-3-[3-(2-methylpyridin-4-yl)-1H-pyrazolo[4,3-c]pyridin-6-yl]urea], for which the pIC50 is 8.95 in assay [1] (setting [3]) and 8.92 to 10.00 in assay [1] (setting [4]).
For the compound `C[C@@H](NC(=O)Nc1cc2[nH]nc(C3CC3)c2cn1)c1ccccc1` [Example 25, 1-(3-cyclopropyl-1H-pyrazolo[4,3-c]pyridin-6-yl)-3-[(1R)-1-phenylethyl]urea], the negative logarithm of the IC50 (pIC50) was 8.71 in assay [2] (setting [5]) and 8.92 to 10.00 in assay [1] (setting [4]).
On to `COc1cccc(F)c1CN1CCC[C@@H](NC(=O)Nc2cc3[nH]nc(-c4ccnc(C)c4)c3cn2)C1` [Example 2, 1-[(3R)-1-(2-fluoro-6-methoxybenzyl)-piperidin-3-yl]-3-[3-(2-methylpyridin-4-yl)-1H-pyrazolo[4,3-c]pyridin-6-yl]urea], for which the negative-log IC50 (pIC50) was 9.54 in assay [2] (setting [5]), 9.82 in assay [1] (setting [3]) and 8.92 to 10.00 in assay [1] (setting [4]).
Regarding `Cc1cc(-c2n[nH]c3cc(NC(=O)NCc4cccnc4)ncc23)ccn1` [Example 14, 1-[3-(2-methylpyridin-4-yl)-1H-pyrazolo[4,3-c]pyridin-6-yl]-3-(pyridin-3-ylmethyl)urea], the values for the pIC50 in assay [1] (setting [3]) and in assay [1] (setting [4]) were 8.94 and 8.92 to 10.00, respectively.
Turning to `COc1cccc(F)c1CN1CCC[C@H](NC(=O)Nc2cc3[nH]nc(-c4ccnc(C)c4)c3cn2)C1` [Example 3, 1-[(3S)-1-(2-fluoro-6-methoxybenzyl)-piperidin-3-yl]-3-[3-(2-methylpyridin-4-yl)-1H-pyrazolo[4,3-c]pyridin-6-yl]urea], the negative-log IC50 (pIC50) in assay [1] (setting [3]) was 7.44.
As to `Cc1cc(-c2n[nH]c3cc(NC(=O)NCCc4ccccc4)ncc23)ccn1` [Example 5, 1-[3-(2-methylpyridin-4-yl)-1H-pyrazolo[4,3-c]pyridin-6-yl]-3-(2-phenylethyl)urea], the figures for the pIC50 in assay [1] (setting [3]) and in assay [1] (setting [4]) were 9.30 and 8.92 to 10.00, respectively.
Regarding `Cc1cc(-c2n[nH]c3cc(NC(=O)N[C@H](c4ccccc4)C(F)(F)F)ncc23)ccn1` [Example 18, 1-[3-(2-methylpyridin-4-yl)-1H-pyrazolo[4,3-c]pyridin-6-yl]-3-[(1R)-2,2,2-trifluoro-1-phenylethyl]urea], in assay [1] (setting [3]), the pIC50 was 8.02.
`Cc1cc(-c2n[nH]c3cc(NC(=O)N[C@@H](CO)c4ccccc4)ncc23)ccn1` [Example 17, 1-[(1R)-2-hydroxy-1-phenylethyl]-3-[3-(2-methylpyridin-4-yl)-1H-pyrazolo[4,3-c]pyridin-6-yl]urea]: the negative logarithm of the IC50 (pIC50) in assay [1] (setting [3]) was 6.97.
With `Cc1cc(-c2n[nH]c3cc(NC(=O)NCc4nnc(C)o4)ncc23)ccn1` [Example 13], the pIC50 in assay [1] (setting [3]) is 7.99.
The same measure, in the same setting: in the case of `Cc1cc(-c2n[nH]c3cc(NC(=O)N[C@@H](c4ccccc4)C(F)(F)F)ncc23)ccn1` [Example 16, 1-[3-(2-methylpyridin-4-yl)-1H-pyrazolo[4,3-c]pyridin-6-yl]-3-[(1S)-2,2,2-trifluoro-1-phenylethyl]urea] it was 8.42.
As to `Cc1cc(-c2n[nH]c3cc(NC(=O)NCc4ccc(Cl)cc4)ncc23)ccn1` [Example 26, 1-(4-chlorobenzyl)-3-[3-(2-methylpyridin-4-yl)-1H-pyrazolo[4,3-c]pyridin-6-yl]urea], the pIC50 in assay [2] (setting [5]) is 9.29; in assay [1] (setting [3]) it was 9.34; in assay [1] (setting [4]) it was 8.92 to 10.00.
In the case of `Cc1cc(-c2n[nH]c3cc(NC(=O)N[C@@H](C)c4ccccc4)ncc23)ccn1` [Example 7, 1-[3-(2-methylpyridin-4-yl)-1H-pyrazolo[4,3-c]pyridin-6-yl]-3-[(1S)-1-phenylethyl]urea], the pIC50 in assay [1] (setting [3]) is 7.42.
For the compound `CCCc1n[nH]c2cc(NC(=O)N[C@H](C)c3ccccc3)ncc12` [Example 22, (R)-1-(1-phenylethyl)-3-(3-propyl-1H-pyrazolo[4,3-c]pyridin-6-yl)urea], the negative logarithm of the IC50 (pIC50) in assay [2] (setting [5]) was 8.79; in assay [1] (setting [3]), 9.04; in assay [1] (setting [4]), 8.92 to 10.00.
In the case of `Cc1cc(-c2n[nH]c3cc(NC(=O)NC4CCCNC4)ncc23)ccn1` (centres unmarked) [Example 1, 3-({[3-(2-methylpyridin-4-yl)-1H-pyrazolo[4,3-c]pyridin-6-yl]carbamoyl}amino)piperidinium trifluoroacetate], the pIC50 in assay [1] (setting [3]) was 8.50.
Take `Cc1cc(-c2n[nH]c3cc(NC(=O)N[C@@H](C)c4ccc(F)cc4)ncc23)ccn1` [Example 11, 1-[(1S)-1-(4-fluorophenyl)ethyl]-3-[3-(2-methylpyridin-4-yl)-1H-pyrazolo[4,3-c]pyridin-6-yl]urea]: the values for the pIC50 in assay [2] (setting [5]), in assay [1] (setting [3]) and in assay [1] (setting [4]) were 9.47, 9.82 and 8.92 to 10.00, respectively.
`Cc1cc(-c2n[nH]c3cc(NC(=O)N[C@H](CO)c4ccccc4)ncc23)ccn1` [Example 15, 1-[(1S)-2-hydroxy-1-phenylethyl]-3-[3-(2-methylpyridin-4-yl)-1H-pyrazolo[4,3-c]pyridin-6-yl]urea]: the negative logarithm of the IC50 (pIC50) in assay [2] (setting [5]) is 9.41; in assay [1] (setting [4]), 8.92 to 10.00.
For `C[C@@H](NC(=O)Nc1cc2[nH]nc(C3=CCOCC3)c2cn1)c1ccccc1` [Example 20, 1-[3-(3,6-dihydro-2H-pyran-4-yl)-1H-pyrazolo[4,3-c]pyridin-6-yl]-3-[(1R)-1-phenylethyl]urea], the negative-log IC50 (pIC50) is 9.27 in assay [1] (setting [3]) and 8.92 to 10.00 in assay [1] (setting [4]).
With `COCCCc1n[nH]c2cc(NC(=O)N[C@H](C)c3ccccc3)ncc12` [Example 21, (R)-1-(3-(3-methoxypropyl)-1H-pyrazolo[4,3-c]pyridin-6-yl)-3-(1-phenylethyl)urea], the pIC50 was 8.60 in assay [2] (setting [5]) and 8.65 in assay [1] (setting [3]).
Regarding `Cc1cc(-c2n[nH]c3cc(NC(=O)NCc4ccccc4)ncc23)ccn1` [Example 9], the pIC50 in assay [2] was 9.07; in assay [1] (setting [3]), 9.65; in assay [1] (setting [4]), 8.92 to 10.00.
`C[C@@H](NC(=O)Nc1cc2[nH]ncc2cn1)c1ccc(F)cc1` [Example 24, 1-[(1R)-1-(4-fluorophenyl)ethyl]-3-(1H-pyrazolo[4,3-c]pyridin-6-yl)urea]: the negative logarithm of the IC50 (pIC50) was 6.08 in assay [2] (setting [5]) and 6.17 in assay [1] (setting [3]).
With `Cc1cc(-c2n[nH]c3cc(NC(=O)NC(CO)c4ccccc4)ncc23)ccn1` (centres unmarked) [Example 10, 1-(2-hydroxy-1-phenylethyl)-3-[3-(2-methylpyridin-4-yl)-1H-pyrazolo[4,3-c]pyridin-6-yl]urea], the values for the pIC50 in assay [1] (setting [3]) and in assay [1] (setting [4]) were 9.67 and 8.92 to 10.00, respectively.
Consider `Cc1cc(-c2n[nH]c3cc(NC(=O)N[C@H](C)c4ccc(Cl)cc4)ncc23)ccn1` [Example 19, 1-[(1R)-1-(4-chlorophenyl)ethyl]-3-[3-(2-methylpyridin-4-yl)-1H-pyrazolo[4,3-c]pyridin-6-yl]urea], for which the negative logarithm of the IC50 (pIC50) in assay [2] (setting [5]) was 9.26; in assay [1] (setting [3]) it was 9.53; in assay [1] (setting [4]) it was 8.92 to 10.00.
On to `Cc1cc(-c2n[nH]c3cc(NC(N)=O)ncc23)ccn1` [Example 23, 1-(3-(2-methylpyridin-4-yl)-1H-pyrazolo[4,3-c]pyridin-6-yl)urea], for which the pIC50 in assay [2] (setting [5]) was 8.70; in assay [1] (setting [3]), 8.65.
With `Cc1cc(-c2n[nH]c3cc(NC(=O)NCc4ccc(Cl)c(Cl)c4)ncc23)ccn1` [Example 8, 1-(3,4-dichlorobenzyl)-3-[3-(2-methylpyridin-4-yl)-1H-pyrazolo[4,3-c]pyridin-6-yl]urea], the results for the negative logarithm of the IC50 (pIC50) in assay [1] (setting [3]) and in assay [1] (setting [4]) were 9.29 and 8.92 to 10.00, respectively.
Regarding `Cc1cc(-c2n[nH]c3cc(NC(=O)N[C@H](C)c4ccccc4)ncc23)ccn1` [Example 6, 1-[3-(2-methylpyridin-4-yl)-1H-pyrazolo[4,3-c]pyridin-6-yl]-3-[(1R)-1-phenylethyl]urea], the figures for the negative logarithm of the IC50 (pIC50) in assay [2] (setting [5]), in assay [1] (setting [3]) and in assay [1] (setting [4]) were 9.69, 9.82 and 8.92 to 10.00, respectively.
